Measurements: ChEMBL document CHEMBL1201862, “PubChem BioAssay data set” (2004)
Structures can show the parent of a compound that is named as a salt. Activity calls are given as the source filed them.

Assays:
[1] = CellTiter-Glo luminescence survival assay, SW480 colon tumor line, concentration-response curve, half-maximal inhibitory concentration (AID 1117338); assay type: functional
[2] = SNU-C1 cell viability reduction, dose response, CellTiter-Glo luminescence (AID 1117323); assay type: functional, cell-based
[3] = molecular target: T1, Cytochrome P450 1A2 (Homo sapiens, UniProt P05177);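 also: PubChem cytochrome P450 panel assay, CYP1A2 panel member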
T1 sequence (P05177 whole entry): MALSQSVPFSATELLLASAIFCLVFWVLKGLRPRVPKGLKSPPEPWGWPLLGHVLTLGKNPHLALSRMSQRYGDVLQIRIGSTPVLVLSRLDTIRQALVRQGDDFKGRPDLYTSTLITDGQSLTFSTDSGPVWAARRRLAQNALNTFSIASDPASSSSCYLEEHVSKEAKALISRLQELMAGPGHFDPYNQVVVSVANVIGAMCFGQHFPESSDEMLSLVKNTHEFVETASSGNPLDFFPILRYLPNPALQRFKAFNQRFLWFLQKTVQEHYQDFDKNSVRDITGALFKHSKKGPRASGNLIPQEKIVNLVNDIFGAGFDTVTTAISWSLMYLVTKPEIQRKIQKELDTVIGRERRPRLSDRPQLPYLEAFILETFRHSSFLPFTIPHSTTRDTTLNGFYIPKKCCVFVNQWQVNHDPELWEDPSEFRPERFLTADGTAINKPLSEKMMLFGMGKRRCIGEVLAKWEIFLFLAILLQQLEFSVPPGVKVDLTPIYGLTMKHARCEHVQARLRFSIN

[4] = cytotoxicity toward HCT116 cells – cell-based, CellTiter-Glo luminescence, IC50, dose response (AID 1117332); assay type: functional; conditions: HCT-116
[5] = HCT116 cell viability decrease, GSK3B pretreatment – CellTiter-Glo, IC50, dose response (AID 1117339); assay type: functional; conditions: HCT-116
[6] = cytotoxicity toward Colo320 cells – cell-based, CellTiter-Glo luminescence, IC50, dose response (AID 1117334); assay type: functional; conditions: COLO 320
[7] = Reduced DLD-1 viability, concentration-response, CellTiter-Glo luminescence (AID 1117352); assay type: functional
[8] = molecular target: Cytochrome P450 2D6 (Homo sapiens, UniProt P10635);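 also: CYP2D6 member of a cytochrome P450 panel assay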
[9] = cytotoxicity toward HT-29 cells – cell-based, CellTiter-Glo luminescence, IC50, dose response (AID 1117330); assay type: functional
[10] = RKO cell viability reduction, dose response, CellTiter-Glo luminescence (AID 1117322); assay type: functional
[11] = Vero E6 cell cytotoxicity, dose response, cytotoxicity control for non-replicating M. tuberculosis project, secondary assay (AID 492998); assay type: functional, VeroE6; conditions: Vero C1008
[12] = system: Streptococcus; assay: GAS UMAA2166 growth inhibition – luminescence, BacTiterGlo, counter-screen for streptokinase expression inhibitor project, dose response (AID 1915); assay type: functional, organism-based;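 also: potency for reduction of bacterial viability or growth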
[13] = molecular target: T2, Streptokinase A (Streptococcus pyogenes serotype M1, UniProt P10520); assay: viability-normalized secreted streptokinase activity reduction – plasminogen activation absorbance, OD405, dose response (AID 1914); assay type: functional, Streptococcus pyogenes M1 GAS;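 also: secreted streptokinase activity via plasminogen activation per viability signal from cell pellet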
T2 sequence (P10520 whole entry): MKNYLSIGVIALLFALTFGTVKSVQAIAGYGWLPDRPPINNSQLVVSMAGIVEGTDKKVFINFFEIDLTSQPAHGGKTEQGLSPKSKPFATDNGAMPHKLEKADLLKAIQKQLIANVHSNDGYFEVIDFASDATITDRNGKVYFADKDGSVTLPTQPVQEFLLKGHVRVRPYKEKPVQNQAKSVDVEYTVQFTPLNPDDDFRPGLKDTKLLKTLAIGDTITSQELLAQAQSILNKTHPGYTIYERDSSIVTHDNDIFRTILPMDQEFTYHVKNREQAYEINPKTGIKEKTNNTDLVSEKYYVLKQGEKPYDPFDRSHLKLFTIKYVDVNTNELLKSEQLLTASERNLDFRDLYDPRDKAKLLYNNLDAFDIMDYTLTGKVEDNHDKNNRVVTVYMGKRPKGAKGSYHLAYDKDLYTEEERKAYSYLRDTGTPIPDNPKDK

[14] = molecular target: T3, Aminopeptidase N (Plasmodium falciparum FcB1/Columbia, UniProt O96935); assay: malaria alanyl aminopeptidase activity blockers – biochemical, fluorogenic H-Leu-NHMec substrate, 1536-well (AID 1445); parameters: species or system Plasmodium falciparum 3D7, 3D7
T3 sequence (O96935 whole entry): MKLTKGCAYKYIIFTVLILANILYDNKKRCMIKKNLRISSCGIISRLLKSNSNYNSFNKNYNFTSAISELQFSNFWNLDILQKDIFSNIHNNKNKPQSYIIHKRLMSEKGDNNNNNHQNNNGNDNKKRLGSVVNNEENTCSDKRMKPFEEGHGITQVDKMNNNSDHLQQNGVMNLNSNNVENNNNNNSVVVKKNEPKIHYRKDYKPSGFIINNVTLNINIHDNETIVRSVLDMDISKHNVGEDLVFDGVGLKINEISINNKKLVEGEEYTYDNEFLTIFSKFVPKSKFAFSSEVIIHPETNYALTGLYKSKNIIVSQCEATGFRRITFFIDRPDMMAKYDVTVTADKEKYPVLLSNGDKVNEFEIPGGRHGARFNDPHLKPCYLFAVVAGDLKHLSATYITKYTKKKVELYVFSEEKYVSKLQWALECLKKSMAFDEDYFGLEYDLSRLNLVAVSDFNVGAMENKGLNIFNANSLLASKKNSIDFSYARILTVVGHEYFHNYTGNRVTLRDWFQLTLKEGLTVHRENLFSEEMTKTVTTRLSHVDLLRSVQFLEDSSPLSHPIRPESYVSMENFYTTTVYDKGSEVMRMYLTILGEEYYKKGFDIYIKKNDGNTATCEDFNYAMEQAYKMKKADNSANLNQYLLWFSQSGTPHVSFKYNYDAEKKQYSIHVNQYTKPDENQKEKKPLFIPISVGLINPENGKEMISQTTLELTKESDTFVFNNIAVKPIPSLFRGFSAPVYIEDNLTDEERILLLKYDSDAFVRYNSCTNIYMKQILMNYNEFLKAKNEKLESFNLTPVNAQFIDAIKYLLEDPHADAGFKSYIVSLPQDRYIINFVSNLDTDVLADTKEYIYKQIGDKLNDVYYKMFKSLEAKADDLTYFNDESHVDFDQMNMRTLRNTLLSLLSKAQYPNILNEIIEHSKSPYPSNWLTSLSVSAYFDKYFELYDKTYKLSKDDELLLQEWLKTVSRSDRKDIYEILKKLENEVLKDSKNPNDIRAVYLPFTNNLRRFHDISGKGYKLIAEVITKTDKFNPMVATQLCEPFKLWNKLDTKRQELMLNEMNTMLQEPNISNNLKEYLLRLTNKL

[15] = THP-1 cell cytotoxicity, dose response, cytotoxicity control for non-replicating M. tuberculosis project (AID 489025); assay type: functional
[16] = HepG2 cell cytotoxicity, dose response, cytotoxicity control for non-replicating M. tuberculosis project (AID 489018); assay type: functional; conditions: Mycobacterium tuberculosis
[17] = system: Streptococcus sp. 'group A'; assay: Streptococcus pyogenes SK(-)GAS viability under kanamycin – luminescence, BacTiterGlo, confirmation, counter-screen for streptokinase expression inhibitor project, dose response (AID 1900); assay type: functional, organism-based
[18] = molecular target: Prothrombin (Homo sapiens, UniProt P00734); assay: Thrombin 1536 HTS Dose Response Confirmation. [Related pubchem assays: 1046 (Thrombin 1536 HTS; hits were confirmed in this assay)]; assay type: functional

Chain of Cytochrome P450 2D6 (P10635 whole entry): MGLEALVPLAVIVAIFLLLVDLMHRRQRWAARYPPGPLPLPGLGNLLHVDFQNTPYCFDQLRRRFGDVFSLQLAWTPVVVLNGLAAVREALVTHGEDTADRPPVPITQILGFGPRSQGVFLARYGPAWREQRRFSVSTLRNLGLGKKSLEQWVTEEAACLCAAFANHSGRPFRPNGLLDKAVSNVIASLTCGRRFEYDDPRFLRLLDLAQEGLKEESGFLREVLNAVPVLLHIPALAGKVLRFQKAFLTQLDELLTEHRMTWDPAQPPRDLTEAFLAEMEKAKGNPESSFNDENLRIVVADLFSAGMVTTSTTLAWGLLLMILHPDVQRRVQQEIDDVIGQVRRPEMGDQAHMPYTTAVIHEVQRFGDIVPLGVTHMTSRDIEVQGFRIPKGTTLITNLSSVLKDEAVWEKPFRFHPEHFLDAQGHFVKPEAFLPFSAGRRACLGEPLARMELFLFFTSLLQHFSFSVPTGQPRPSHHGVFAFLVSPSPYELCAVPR

CN1CCN(CCCN2c3ccccc3Sc3ccc(S(=O)(=O)N(C)C)cc32)CC1 [THIOPROPERAZINE MESYLATE]
IC50 [1]: > 20 µM (inactive) | IC50 [2]: 2.12 µM (active) | AC50 [3]: 12.6 µM (inconclusive) | IC50 [4]: > 20 µM (inactive) | IC50 [5]: > 20 µM (inactive) | IC50 [6]: 8.17 µM (inactive) | IC50 [7]: 14.6 µM (inactive) | AC50 [8]: 6.31 µM (inconclusive) | IC50 [9]: > 20 µM (inactive) | IC50 [10]: 5.99 µM (inactive)

C/C(=N\NC(=O)c1ccccc1O)C1C(=O)c2ccccc2C1=O
CC50 [11]: 4.99 µM (active) | EC50 [12]: 41 µM (active) | EC50 [13]: > 150 µM (not active) | IC50 [14]: 12.8 µM (active) | CC50 [15]: 10.5 µM (active) | CC50 [16]: > 20 µM (active) | EC50 [17]: 3.62 µM (active)

O=c1[nH]c(SCc2ccccc2Cl)nc2n[nH]cc12
IC50 [14]: 9.3 µM (active)

Nc1nc(-c2cccnc2)nn1C(=O)c1ccccc1Cl
IC50 [18]: 0.0831 µM (active)

O=c1[nH]c2ccc(Br)cc2c(-c2ccccc2)c1CN1CCOCC1
IC50 [14]: 54.2 µM (active)

CC(=O)NC(=O)c1ccccc1O [SALACETAMIDE]
IC50 [1]: > 20 µM (inactive) | IC50 [2]: > 20 µM (inactive) | IC50 [4]: > 20 µM (inactive) | IC50 [5]: > 20 µM (inactive) | IC50 [6]: > 20 µM (inactive) | IC50 [7]: > 20 µM (inactive) | IC50 [9]: > 20 µM (inactive) | IC50 [10]: > 20 µM (inactive)

Cc1nc2ccccc2c(=O)n1NC(=O)c1cc(Br)ccc1Cl
IC50 [18]: > 50 µM (not active)
